Data as given in paper PMC9023744, “The Cytochrome P450 OxyA from the Kistamicin Biosynthesis Cyclization Cascade is Highly Sensitive to Oxidative Damage” (Frontiers in Chemistry, 2022).

Columns and labels:
OxyCkis = target: T1, OxyCkis; test: UV-visible difference spectroscopy titration, one-site model; type: binding; conditions: 50 mM Tris-HCl pH 8, 30°C; 2.5 µM enzyme
T1 construct: gene OxyC; recombinant, expressed in E. coli Arctic Express; Ni-NTA, anion exchange, size exclusion

OxyAkis = target: T2, OxyAkis ([Actinomadura] parvosata, UniProt A0A1V0AG67); test: as above; type: binding
T2 construct: gene BKM31_54160; pET28a, His-tagged, expressed in E. coli Arctic Express; Ni-NTA, anion exchange, size exclusion
T2 sequence (A0A1V0AG67 entry or part of it): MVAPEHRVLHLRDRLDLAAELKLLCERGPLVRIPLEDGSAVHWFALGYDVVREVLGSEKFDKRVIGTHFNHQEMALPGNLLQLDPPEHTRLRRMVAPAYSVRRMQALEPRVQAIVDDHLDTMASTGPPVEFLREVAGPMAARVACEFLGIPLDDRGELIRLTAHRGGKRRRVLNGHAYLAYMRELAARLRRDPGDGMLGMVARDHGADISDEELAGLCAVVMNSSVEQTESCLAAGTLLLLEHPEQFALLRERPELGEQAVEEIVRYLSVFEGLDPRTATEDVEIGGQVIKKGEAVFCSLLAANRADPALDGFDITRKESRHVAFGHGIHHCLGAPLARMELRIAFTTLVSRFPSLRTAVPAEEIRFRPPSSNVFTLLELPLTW

Q: How did the Kd (OxyCkis) turn out when `c1c[nH]cn1` [imidazole] was run?
A: 84 µM

Q: What about the Kd (OxyAkis) of the same compound?
A: 120 µM
